Test results from patent US20190091494A1, “PEPTIDES FOR HAIR GROWTH” (Clinical Stem Cells Pty Ltd, priority 2016, published 2019).
Values joined by “and” are separate entries in the source; they are usually repeats but may differ in a detail not shown here. Equal entries are not always repeated. “Also recorded” adds a separate entry of the source. Where no end group is shown, it is not given here. [ ]: non-standard residue; d: D form. pGlu = O=C1CC[C@@H](C(=O)O)N1

Experiments:
[1] = system: inactive hair follicles; experiment: Inventor's observation: activation of inactive hair follicles; details: in vivo
[2] = system: hair follicles; details: active hair follicles that entered catagen; US 2011/0281802; cited from earlier work
[3] = system: hair follicles; experiment: Clinical trial using topical zinc thymulin: number of active hair follicles in a set scalp area; type: in vivo, Human
Procedure: The area near the marker affected by hair loss was photographed using a Samsung Galaxy Note 4 camera with settings F2.2, focal length 31 mm, LED flash and the number of active hair follicles in a set area were quantified.
The aqueous spray formulation prepared in Example 2 was administered topically to the scalp of the trial subjects twice daily to the hair loss region(s) of the scalp. The formulation used for subjects 1, 2 and 3 contained 0.00005% LKKTETQ peptide (molecular weight 846.48).
At 16 weeks for subject 1 and 12 weeks for subjects 2, 3 and 4, the number of active hair follicles in the set area was quantified again. Multiple set areas of hair loss were evaluated for trial subjects 1, 2 and 3. These areas are designated “a” and “b” in Table 2 and Table 3.

[4] = system: adult subjects with a diagnosis of AGA; experiment: Further clinical trial, numbered visual analog scale (VAS) global hair assessment; type: in vivo, human; details: for VAS after treatment: scale 0-10, one value per subject 1-18, 0.0005% spray twice daily, 4-10 months
Source text: (§1) Eighteen consecutive adult subjects were recruited, 17 males and 1 female, age range 35-90 years (mean 55.4, SD 13.3) with a diagnosis of AGA, Norwood classification 2-7, and hair loss duration range of 3-40 years (mean 15.8, SD 9.6). The trial duration for each subject ranged from 4-10 months. The test compound ZT was synthesized by standard Fmoc peptide protocols and administered in water based topical spray to the scalp. Baseline and after treatment images for hair growth were graded by two blinded assessors using two validated scales: 1. numerical visual analog scale (VAS) for global assessment 2. hair growth index (HGI) of images under higher magnification for percentage changes of vellus, intermediate and terminal hair.
(§2) Male and female adult subjects with a diagnosis of AGA were invited to participate in the study. Each subject provided written informed consent except the subject who gave verbal consent as they were unable to provide written consent due to arthritis of the hand. The study was conducted in compliance with the Declaration of Helsinki, International Conference on Harmonization Good Clinical Practice guidelines. Eighteen consecutive adult subjects were recruited (17 males and 1 […]) with an age range 35-90 years (mean 55.4, SD 13.3) with a diagnosis of AGA Norwood-Hamilton classification 2-7, and with a hair loss history ranging from 3-40 years (mean 15.8, SD 9.6). Entry time points of the volunteers occurred over 6 months with the trial completed at the same endpoint resulting in duration of treatment for subjects in the trial ranging from 4-10 months.
(§3) The product given to subjects was a 100 ml spray bottle containing 0.0005% ZT as the active test agent. Subjects were instructed to spray 1-2 ml of solution, twice daily, and rub into the scalp. The spray bottle solution was to be kept away from direct sunlight and heat. Subjects were resupplied with fresh solutions every 6-8 weeks during the trial.
(§4) Images were captured on a Samsung Galaxy Note 4 phone in high resolution (16 MB image) with flash, F 2.2 and focal length 31 mm. For assessment, baseline and after treatment images were de-identified, paired and randomly allocated with respect to left/right sides. Images were presented for analysis to assessors in Powerpoint format files on a 55 inch high resolution television screen. All images and original assessor scorecards were archived in PDF format for external reviewer confirmation.
1. Numbered visual analog scale (VAS) where the assessor gives a value between 0-10 of the image (0=total absence of hair, 10=full abundant hair) (Price, 2008).
(§5) Assessment was graded by two independent assessors in a single blind manner. Assessors underwent three training sessions over two weeks prior to the final evaluation.

[5] = system: adult subjects with a diagnosis of AGA; experiment: Further clinical trial, Hair Growth Index (HGI) of magnified images; type: in vivo, human; details: for HGI adjusted score A (absent) after: raw % multiplied by 0; for HGI raw score % A (absent) after / HGI raw score % I (intermediate) after / HGI raw score % T (terminal) after / HGI raw score % V (vellus) after: per subject, after trial completion
Source text: as §1, §2, §3, §4
2. Hair Growth Index (HGI) that is a more in-depth scale of analysis where higher magnification of images can identify the four types of hair regrowth that are designated as absent, vellus, intermediate or terminal (Bernado, 2003). For each image these four growth stages are given percentage values that added together give a raw score total of 100%. Each percentage value for absent, vellus, intermediate, and terminal are multiplied by 0,1,2,3 respectively to yield a final adjusted score ranging from a possible minimum score of 0 (total absence of hair) to a maximum score of 300 (full terminal hair). Scores were pooled for paired t-test, and P<0.05 was established for significance.
as §5

[6] = system: adult subjects with a diagnosis of AGA; experiment: Further clinical trial, safety: side effects and drug interaction; type: in vivo, human; details: listed as ZT
Source text: as §1, §2, §3

[7] = system: scalp of subject #17; experiment: Fluorescence spectroscopy procedure of the scalp; type: in vivo, human; details: subject #17 (30 year hair loss); 6 pre-existing terminal hairs under visible white LED light
Source text: To confirm this effect subject #17 (30 year hair loss) underwent a fluorescence spectroscopy procedure of the scalp. […] Supporting evidence was seen when comparing the assessor pooled responses of ‘total absent hair’ where 65% (13/20) of subjects improved.

[8] = system: active hair follicles; details: topically applied to rodent skin; cited from earlier work
[9] = all 7 subject areas, 12-16 weeks
[10] = subject 4, 12 weeks, spray without LKKTETQ peptide

Substance: pyrGlu-Ala-Lys-Ser-Gln-Gly-Gly-Ser-Asn ([pGlu]AKSQGGSN) [thymulin, nonapeptide produced by the thymus gland, CAS 63958-90-7, reference compound]
- activation of inactive hair follicles [1]: does not significantly activate inactive hair follicles
- hair shaft formation [2]: inhibit hair shaft formation

Substance: zinc thymulin: zinc complex of amidated and acetylated thymulin H3CC(O)-Pyr-Glu-Ala-Lys-Ser-Gln-Gly-Gly-Ser-Asn-NH2; tested as 0.0005% water based topical spray (Ac-[pGlu]AKSQGGSN-NH2; also: zinc complex)
- Percentage increase in active hair follicles, Average increase [3, 9]: 80%
- Percentage increase in active hair follicles, Range [3, 9]: 6-200%
- Number of active hair follicles after treatment per cm^2 ([3]; subject 1 (areas a, b), 16 weeks, spray with LKKTETQ peptide): 21 per cm^2 and 24 per cm^2
- Number of active hair follicles after treatment ([3]; subject 1 (areas a, b), 16 weeks, twice daily topical 0.0005% spray also containing 0.00005% LKKTETQ peptide): 36 and 48
- Number of active hair follicles after treatment per cm^2 [3, 10]: 38 per cm^2
- Percentage increase in active hair follicles [3, 10]: 135%
- Number of active hair follicles after treatment ([3]; subject 4, 12 weeks, twice daily topical 0.0005% spray without LKKTETQ peptide): 40
- VAS hair assessment improvement ([4]; 11 subjects who completed at least 6 months of treatment, listed as ZT): significant growth
- VAS after treatment ([4]; Assessor #1): 6 (3×) and 8 (10×) and 9 (3×) and 7 (2×)
- VAS after treatment ([4]; Assessor #2): 6 (5×) and 8 (5×) and 7 (3×) and 4 and 9 (2×) and 5 (2×)
- VAS hair growth ([4]; total group (18 subjects) at the end of the trial): no significant growth
- assessor pooled responses of 'total absent hair' improved ([5]; 13/20 pooled responses): 65%
- HGI adjusted score A (absent) after ([5]; Assessor #1): 0
- HGI adjusted score A (absent) after ([5]; Assessor #2): 0
- HGI adjusted score I (intermediate) after ([5]; Assessor #2, raw % multiplied by 2, listed as ZT): 60 and 40
- average increase of intermediate type hairs ([5]; HGI assessment, at 6 months): 23%
- average increase of vellus type hairs ([5]; HGI assessment, at 6 months): 32%
- number of newly observed intermediate hairs in previous absent hair regions ([5]; HGI assessment, listed as ZT): significant increase; also recorded: highly significant increased number
- HGI raw score % A (absent) after ([5]; assessor A#1, listed as ZT): 50% (3×) and 40% (4×) and 15% and 20% (2×)
- HGI raw score % I (intermediate) after ([5]; assessor A#1, listed as ZT): 20% (2×) and 15% and 10% (2×) and 25% (5×)
- HGI raw score % T (terminal) after ([5]; assessor A#1, listed as ZT): 20% (2×) and 30% (3×) and 15% and 10% (2×) and 55% and 60%
- HGI raw score % V (vellus) after ([5]; assessor A#1, listed as ZT): 10% (3×) and 20% (2×) and 25% (3×) and 15% and 5%
- HGI raw score % A (absent) after ([5]; assessor A#2, listed as ZT): 20% and 30% (3×) and 10% (3×) and 40% (2×) and 50%
- HGI raw score % I (intermediate) after ([5]; assessor A#2, listed as ZT): 30% (6×) and 20% (4×)
- HGI raw score % T (terminal) after ([5]; assessor A#2, listed as ZT): 20% (4×) and 30% (2×) and 40% and 10% (2×) and 60%
- HGI raw score % V (vellus) after ([5]; assessor A#2, listed as ZT): 30% (3×) and 20% (3×) and 0% and 40% and 10% (2×)
- Melanogenesis ([5]; higher magnification images, several (older) subjects, listed as ZT): Melanogenesis was observed in several subjects; also recorded: clearly observed
- adverse systemic effects or local side effects (redness, scalp irritation) ([6]; 18 subjects, topical 0.0005% spray, total of 3,300 treatment days): no adverse systemic effects or local side effects of redness or scalp irritation; also recorded: no redness, scalp irritation or deterioration of hair color, quality or quantity
- side effects reported in the entire study ([6]; 18 test subjects, total of 111 months (~3,300 days), attributed to a non-active constituent (citric acid buffer)): Only one side effect; also recorded: only one side effect from a non-active constituent
- drug interaction with ZT ([6]; three subjects concurrently using minoxidil (N=2) and minoxidil/finasteride (N=1)): did not report any drug interaction; also recorded: no observable drug interaction
- additional developing vellus hairs revealed by spectroscopy [7]: 59
- activation of inactive hair follicles [1]: effective

Substance: LKKTETQ [leucine-leucine-lysine-threonine-glutamic acid-threonine-glutamine, added at 0.00005% (amidated & acetylated) to the spray of subjects 1-3]
- hair growth [8]: promotes hair growth from existing active hair follicles
